“And” between values parts separate entries of the source, which are not always exact repeats. Equal entries are not always repeated.
Columns and labels:
[1] = Long-term stability test of chlorogenic acid crystal form; format: physicochemical
[2] = Residual solvent by gas chromatography (internal standard method); format: physicochemical; settings: Chinese Pharmacopoeia limit 0.5%
Procedure: […]; an appropriate amount of ethyl acetate was taken, weighed precisely, and N,N-dimethylformamide was added to prepare the solution containing 5 mg of ethyl acetate per 1 ml. 1 ml of the solution was accurately pipetted into a 10 ml volumetric flask, and 1 ml of the internal standard solution was precisely added, and diluted by adding N,N-dimethylformamide to the volume, and agitated to obtain the reference solution; 0.5 g of the chlorogenic acid crystal form prepared by Examples 1 and 2, and about 0.5 g of respective raw materials of each example, were taken and weighed precisely, then transferred to a 10 ml volumetric flask. 1 ml of the internal standard solution was added precisely, diluted with N,N-dimethylformamide to volume, and agitated, to obtain the testing solution. According to the gas chromatography method (the appendix V E of the second part of the Chinese Pharmacopoeia 2010), 30 m capillary column was used with 50% polyphenyl methylsiloxane as the stationary liquid, and its coating thickness was 1 μm. The column temperature was kept at 80° C. taking 1 μl of the reference solution and 1 μl of the testing solution were accurately taken, respectively, and injected into the gas chromatograph, to record the chromatogram. Calculating with the height ratio of peaks in accordance with internal standard method, the results are as follows: […]

[3] = 0-48 months, 18±2° C., relative humidity 60±10%
[4] = 0 month, 18±2° C., relative humidity 60±10%
[5] = 3 months, 18±2° C., relative humidity 60±10%
[6] = 6 months, 18±2° C., relative humidity 60±10%
[7] = 9 months, 18±2° C., relative humidity 60±10%
[8] = 12 months, 18±2° C., relative humidity 60±10%
[9] = 18 months, 18±2° C., relative humidity 60±10%
[10] = 24 months, 18±2° C., relative humidity 60±10%
[11] = 36 months, 18±2° C., relative humidity 60±10%
[12] = 48 months, 18±2° C., relative humidity 60±10%

## O=C(/C=C/c1ccc(O)c(O)c1)O[C@@H]1C[C@](O)(C(=O)O)C[C@@H](O)[C@H]1O [Example 1, 3-O-caffeoylquinnic acid]
[1]; [3]
  Content of chlorogenic acid over the long-term stability test: above 98%
  Stability (overall conclusion of long-term test): good stability
[1]; [4]
  Appearance: almost white
  Content (%): 99.50% and 99.56% and 99.49%
  Loss on drying (%): 2.32% and 2.31% and 2.29%
  Related substances (%) Other 2: 0.140% and 0.137% and 0.144%
  Related substances (%) Other 3: 0.205% and 0.214% and 0.218%
  Related substances (%) Other 4: 0.045% and 0.049% and 0.048%
  Related substances In total (%): 0.488% and 0.499% and 0.511%
[1]; [5]
  Appearance: almost white
  Content (%): 99.47% and 99.41% and 99.43%
  Loss on drying (%): 2.30% and 2.31% and 2.29%
  Related substances (%) Other 2: 0.142% and 0.151% and 0.148%
  Related substances (%) Other 3: 0.230% and 0.237% and 0.228%
  Related substances (%) Other 4: 0.049% and 0.050% and 0.046%
  Related substances In total (%): 0.523% and 0.543% and 0.525%
[1]; [6]
  Appearance: almost white
  Content (%): 99.44% and 99.38% and 99.42%
  Loss on drying (%): 2.31% and 2.29% and 2.28%
  Related substances (%) Other 2: 0.146% and 0.154% and 0.155%
  Related substances (%) Other 3: 0.234% and 0.240% and 0.231%
  Related substances (%) Other 4: 0.054% and 0.056% and 0.053%
  Related substances In total (%): 0.541% and 0.563% and 0.548%
[1]; [7]
  Appearance: almost white
  Content (%): 99.38% and 99.30% and 99.33%
  Loss on drying (%): 2.32% and 2.31%
  Related substances (%) Other 2: 0.162% and 0.167% and 0.165%
  Related substances (%) Other 3: 0.255% and 0.261% and 0.252%
  Related substances (%) Other 4: 0.058% and 0.061% and 0.060%
  Related substances In total (%): 0.591% and 0.611% and 0.595%
[1]; [8]
  Appearance: almost white
  Content (%): 99.32% and 99.27% and 99.23%
  Loss on drying (%): 2.28% and 2.31% and 2.29%
  Related substances (%) Other 2: 0.163% and 0.168% and 0.169%
  Related substances (%) Other 3: 0.260% and 0.264% and 0.265%
  Related substances (%) Other 4: 0.062% and 0.063%
  Related substances In total (%): 0.606% and 0.623% and 0.627%
[1]; [9]
  Appearance: almost white
  Content (%): 99.18% and 99.26% and 99.24%
  Loss on drying (%): 2.30% and 2.29% and 2.28%
  Related substances (%) Other 2: 0.179% and 0.174%
  Related substances (%) Other 3: 0.279% and 0.270% and 0.272%
  Related substances (%) Other 4: 0.065% and 0.067%
  Related substances In total (%): 0.660% and 0.643% and 0.647%
[1]; [10]
  Appearance: almost white
  Content (%): 99.17% and 99.10% and 99.14%
  Loss on drying (%): 2.32% and 2.30% and 2.31%
  Related substances (%) Other 2: 0.178% and 0.187% and 0.185%
  Related substances (%) Other 3: 0.278% and 0.292% and 0.286%
  Related substances (%) Other 4: 0.070% and 0.074% and 0.072%
  Related substances In total (%): 0.666% and 0.697% and 0.685%
[1]; [11]
  Appearance: almost white
  Content (%): 99.13% and 99.05% and 99.02%
  Loss on drying (%): 2.32% and 2.31%
  Related substances (%) Other 2: 0.190% and 0.194% and 0.196%
  Related substances (%) Other 3: 0.299% and 0.301% and 0.302%
  Related substances (%) Other 4: 0.076% and 0.074% and 0.078%
  Related substances In total (%): 0.713% and 0.719% and 0.732%
[1]; [12]
  Appearance: almost white
  Content (%): 98.85% and 98.74% and 98.80%
  Loss on drying (%): 2.34% and 2.38% and 2.36%
  Related substances (%) Other 2: 0.219% and 0.222% and 0.218%
  Related substances (%) Other 3: 0.303% and 0.309% and 0.306%
  Related substances (%) Other 4: 0.092% and 0.095% and 0.091%
  Related substances In total (%): 0.770% and 0.787% and 0.772%
[1]; at the end of 12, 24, 36 and 48 months, 18±2° C., relative humidity 60±10%
  Crystal form examination by microscope: single lamellar crystal
[1]; within 48 months, stored in the cool and dark place
  Stability on storage: does not change obviously
[2]; listed as Sample obtained in Example 1
  Residual solvent Ethyl acetate (%): 0.254%

## O=C(/C=C/c1ccc(O)c(O)c1)O[C@@H]1C[C@](O)(C(=O)O)C[C@@H](O)[C@H]1O [Raw material of Example 1, 3-O-caffeoylquinnic acid]
[2]
  Residual solvent Ethyl acetate (%): 1.764%

## O=C(/C=C/c1ccc(O)c(O)c1)O[C@@H]1C[C@](O)(C(=O)O)C[C@@H](O)[C@H]1O [Raw material of Example 2, 3-O-caffeoylquinnic acid]
[2]
  Residual solvent Ethyl acetate (%): 2.314%

## O=C(/C=C/c1ccc(O)c(O)c1)O[C@@H]1C[C@](O)(C(=O)O)C[C@@H](O)[C@H]1O [Sample obtained in Example 2, 3-O-caffeoylquinnic acid]
[2]
  Residual solvent Ethyl acetate (%): 0.252%

Reference: patent US10246401B2, “Crystalline form of chlorogenic acid and preparation method thereof” (SICHUAN JIUZHANG BIOLOGICAL SCIENCE AND TECHNOLOGY CO., LTD., priority 2014, dated 2019)
